Measured values as given in article PMC4268884 (Nature communications, 2014).

Target: LRRK2 (Homo sapiens, UniProt Q5S007, G2019S)
Experiment: loss of constitutive phosphorylation in cells
Type: cell-based

LRRK2, sequence (Q5S007 whole entry G2019S): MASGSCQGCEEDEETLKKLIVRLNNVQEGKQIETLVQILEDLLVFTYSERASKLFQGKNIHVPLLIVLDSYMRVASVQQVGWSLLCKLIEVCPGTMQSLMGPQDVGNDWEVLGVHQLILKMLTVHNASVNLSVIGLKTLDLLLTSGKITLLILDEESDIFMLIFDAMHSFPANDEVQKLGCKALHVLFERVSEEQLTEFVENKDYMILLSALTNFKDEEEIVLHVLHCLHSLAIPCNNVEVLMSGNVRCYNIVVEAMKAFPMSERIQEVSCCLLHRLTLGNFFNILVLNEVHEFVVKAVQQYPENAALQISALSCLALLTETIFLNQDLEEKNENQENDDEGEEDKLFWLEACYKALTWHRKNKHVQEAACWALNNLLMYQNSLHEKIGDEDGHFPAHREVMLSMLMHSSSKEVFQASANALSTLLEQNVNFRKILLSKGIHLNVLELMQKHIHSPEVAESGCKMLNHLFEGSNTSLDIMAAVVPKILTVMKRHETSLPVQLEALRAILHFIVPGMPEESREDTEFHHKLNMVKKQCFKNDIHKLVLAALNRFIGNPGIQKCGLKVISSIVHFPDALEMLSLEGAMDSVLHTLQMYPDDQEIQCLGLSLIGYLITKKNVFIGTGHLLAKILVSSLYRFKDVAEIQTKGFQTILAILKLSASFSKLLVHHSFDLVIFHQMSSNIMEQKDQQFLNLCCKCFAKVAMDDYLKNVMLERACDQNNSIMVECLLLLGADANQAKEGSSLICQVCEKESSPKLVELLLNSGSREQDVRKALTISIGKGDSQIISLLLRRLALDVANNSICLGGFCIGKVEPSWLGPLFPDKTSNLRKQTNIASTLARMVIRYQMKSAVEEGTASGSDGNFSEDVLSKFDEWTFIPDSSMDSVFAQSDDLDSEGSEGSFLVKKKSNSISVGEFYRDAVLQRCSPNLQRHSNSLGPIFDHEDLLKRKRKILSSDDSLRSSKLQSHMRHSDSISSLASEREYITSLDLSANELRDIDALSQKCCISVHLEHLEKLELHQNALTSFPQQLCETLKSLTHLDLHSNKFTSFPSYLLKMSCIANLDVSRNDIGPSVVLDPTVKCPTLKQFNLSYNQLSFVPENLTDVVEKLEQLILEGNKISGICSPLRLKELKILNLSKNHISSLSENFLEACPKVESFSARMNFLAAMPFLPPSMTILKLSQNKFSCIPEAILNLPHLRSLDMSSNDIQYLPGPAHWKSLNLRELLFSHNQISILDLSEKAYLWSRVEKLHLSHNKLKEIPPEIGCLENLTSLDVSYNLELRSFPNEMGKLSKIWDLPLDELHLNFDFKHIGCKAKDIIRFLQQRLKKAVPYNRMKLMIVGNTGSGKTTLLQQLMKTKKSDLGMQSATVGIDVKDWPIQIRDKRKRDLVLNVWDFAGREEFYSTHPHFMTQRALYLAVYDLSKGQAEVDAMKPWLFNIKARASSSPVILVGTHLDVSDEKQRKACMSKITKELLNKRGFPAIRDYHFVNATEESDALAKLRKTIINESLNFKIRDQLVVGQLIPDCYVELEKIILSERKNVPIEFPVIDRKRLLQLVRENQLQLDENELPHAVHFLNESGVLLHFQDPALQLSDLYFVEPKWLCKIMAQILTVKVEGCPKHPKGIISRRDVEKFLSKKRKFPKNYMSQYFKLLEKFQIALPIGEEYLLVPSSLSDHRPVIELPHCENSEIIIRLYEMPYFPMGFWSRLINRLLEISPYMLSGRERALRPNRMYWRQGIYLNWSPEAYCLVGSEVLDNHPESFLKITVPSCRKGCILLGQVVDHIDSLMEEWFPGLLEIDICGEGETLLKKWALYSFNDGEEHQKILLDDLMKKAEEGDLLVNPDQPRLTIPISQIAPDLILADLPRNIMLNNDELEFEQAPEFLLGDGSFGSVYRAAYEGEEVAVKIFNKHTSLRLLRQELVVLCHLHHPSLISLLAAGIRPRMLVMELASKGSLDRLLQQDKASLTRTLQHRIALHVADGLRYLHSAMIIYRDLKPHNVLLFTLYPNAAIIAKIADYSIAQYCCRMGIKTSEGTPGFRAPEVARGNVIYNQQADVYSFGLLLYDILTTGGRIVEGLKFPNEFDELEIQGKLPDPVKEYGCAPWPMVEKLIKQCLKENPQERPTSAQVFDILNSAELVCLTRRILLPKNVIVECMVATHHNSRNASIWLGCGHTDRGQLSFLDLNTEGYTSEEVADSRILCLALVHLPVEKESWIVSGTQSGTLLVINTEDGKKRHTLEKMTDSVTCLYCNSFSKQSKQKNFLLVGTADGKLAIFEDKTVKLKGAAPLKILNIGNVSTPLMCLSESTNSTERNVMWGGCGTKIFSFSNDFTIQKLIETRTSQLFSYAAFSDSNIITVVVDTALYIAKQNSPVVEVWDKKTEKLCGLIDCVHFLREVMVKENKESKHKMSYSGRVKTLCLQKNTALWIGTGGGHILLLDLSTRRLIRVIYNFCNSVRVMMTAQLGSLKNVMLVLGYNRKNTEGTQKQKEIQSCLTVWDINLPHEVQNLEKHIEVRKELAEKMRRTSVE

SMILES: COc1cc(C(=O)N2CCC(N3CCN(C)CC3)CC2)ccc1Nc1ncc2c(n1)N(C)c1ccccc1C(=O)N2C [LRRK2-IN1]
- loss of constitutive phosphorylation in cells: The pathogenic G2019S mutation in the kinase domain is phosphorylated and sensitive to the effects of LRRK2-IN1
